Tested on: mouse
Format: in vivo
Conditions: oral administration at 5 g/kg weight
Text: The theanine used in the present invention has high safety. […] Also, especially L-theanine is known as a main component of umami (tastiness) of the green tea, and is also used as a food additive giving umami, without the limitation of its added amount under the regulation for food hygiene. Moreover, contrary to the conventional drugs, since there is no side effect by theanine at all, the mood disorders can be safely and effectively treated, ameliorated or the like according to the composition of the present invention.

CCNC(=O)CC[C@H](N)C(=O)O [theanine]
cases of death: no cases of death

From patent US20040171624A1, “Pharmaceutical composition for treating mood disorders” (priority 2001, published 2004)
